From PubChem BioAssay AID1745844 (Carcinogenic Potency Database (CPDB), 2022)
“And” between values parts separate entries of the source, which are not always exact repeats. Equal values may be shown once. The source made the active and inactive calls. How the calls were made is not given here.

System: rodent lifetime carcinogenesis bioassay, tumor incidence TD50
Test: carcinogenic potency in animals, long-term in vivo studies, CPDB compilation (AID 1745844)

With `CNC[C@H](O)c1cccc(O)c1` the TD50 (mouse, strain B6C3F1, females, in feed, site: any site (literature study), lesion: several types, types named in the paper, dosed 103 weeks, study length 104 weeks) was 911 mg/kg/day (inactive), the TD50 (mouse, strain B6C3F1, females, in feed, site: liver, lesion: hepatocellular adenoma + hepatocellular carcinoma + neoplastic nodule, dosed 103 weeks, study length 104 weeks) was 7850 mg/kg/day and the TD50 (mouse, strain B6C3F1, females, in feed, site: lung, lesion: alveolar/bronchiolar adenoma + alveolar/bronchiolar carcinoma, dosed 103 weeks, study length 104 weeks) was 1610 mg/kg/day. The TD50 (mouse, strain B6C3F1, males, in feed, site: any site (literature study), lesion: several types, types named in the paper, dosed 103 weeks, study length 104 weeks) was 6330 mg/kg/day, the TD50 (mouse, strain B6C3F1, males, in feed, site: liver, lesion: hepatocellular adenoma + hepatocellular carcinoma + neoplastic nodule, dosed 103 weeks, study length 104 weeks) was 4270 mg/kg/day and the TD50 (mouse, strain B6C3F1, males, in feed, site: lung, lesion: alveolar/bronchiolar adenoma + alveolar/bronchiolar carcinoma, dosed 103 weeks, study length 104 weeks) was 2130 mg/kg/day. For the same molecule, the TD50 (mouse, strain B6C3F1, males, in feed, site: multiple organs + spleen, lesion: malignant lymphoma, mixed type, dosed 103 weeks, study length 104 weeks) was 1720 mg/kg/day, the TD50 (mouse, strain B6C3F1, males, in feed, site: subcutaneous tissue, lesion: fibrosarcoma, dosed 103 weeks, study length 104 weeks) was 1640 mg/kg/day (inactive) and the TD50 (rat, strain Fischer 344, females, in feed, site: any site (literature study), lesion: several types, types named in the paper, dosed 103 weeks, study length 104 weeks) was 272 mg/kg/day (inactive). For the same molecule, the carcinogen call (rat, strain Fischer 344, males, in feed, site: any site (literature study), lesion: several types, types named in the paper, dosed 103 weeks, study length 104 weeks) was “negative (inactive)”.

For `CCC=C(CC)[N+](=O)[O-]`, the TD50 (mouse, strain Swiss Webster, females, inhaled, site: lung, lesion: adenocarcinoma, dosed 62 weeks, study length 62 weeks) was 0.363 mg/kg/day and 0.768 mg/kg/day, the TD50 (mouse, strain Swiss Webster, females, inhaled, site: lung, lesion: several types, types named in the paper, dosed 62 weeks, study length 62 weeks) was 0.687 mg/kg/day and the TD50 (mouse, strain Swiss, both sexes, inhaled, site: lung, lesion: adenocarcinoma, dosed 62 weeks, study length 62 weeks) was 0.346 mg/kg/day. The TD50 (rat, strain CFN, both sexes, inhaled, site: lung, lesion: undifferentiated carcinoma, dosed 158 weeks, study length 158 weeks) was 8.66 mg/kg/day.

`CC(Cc1ccccc1)NN` (stereo not drawn) was tested, and the carcinogen call (mouse, strain Swiss albino, females, in drinking water, site: liver, lesion: hepatoma, dosed 119 weeks, study length 127 weeks) was “negative (inactive)”, the carcinogen call (mouse, strain Swiss albino, females, in drinking water, site: lung, lesion: one or several types, types not named, dosed 119 weeks, study length 127 weeks) was “negative (inactive)” and the carcinogen call (mouse, strain Swiss albino, males, in drinking water, site: liver, lesion: hepatoma, dosed 100 weeks, study length 112 weeks) was “negative (inactive)”. The carcinogen call (mouse, strain Swiss albino, males, in drinking water, site: lung, lesion: one or several types, types not named, dosed 100 weeks, study length 112 weeks) was “negative (inactive)”.

For `COc1cc2c(cc1N)oc1ccccc12`, the TD50 (rat, strain Fischer, females, in feed, site: any site (literature study), lesion: malignant tumor, dosed 75 weeks, study length 75 weeks) was 33.1 mg/kg/day, the TD50 (rat, strain Fischer, females, in feed, site: external auditory canal, lesion: squamous-cell carcinoma, dosed 75 weeks, study length 75 weeks) was 43.9 mg/kg/day and the TD50 (rat, strain Fischer, females, in feed, site: mammary gland, lesion: adenocarcinoma, dosed 75 weeks, study length 75 weeks) was 205 mg/kg/day. The TD50 (rat, strain Fischer, females, in feed, site: urinary bladder, lesion: several types, types named in the paper, dosed 75 weeks, study length 75 weeks) was 25.7 mg/kg/day, the TD50 (rat, strain Fischer, females, in feed, site: urinary bladder, lesion: transitional-cell carcinoma, dosed 75 weeks, study length 75 weeks) was 43.9 mg/kg/day and the TD50 (rat, strain Fischer, males, in feed, site: any site (literature study), lesion: malignant tumor, dosed 75 weeks, study length 75 weeks) was 78.2 mg/kg/day. The TD50 (rat, strain Fischer, males, in feed, site: external auditory canal, lesion: squamous-cell carcinoma, dosed 75 weeks, study length 75 weeks) was 78.2 mg/kg/day, the TD50 (rat, strain Fischer, males, in feed, site: urinary bladder, lesion: several types, types named in the paper, dosed 75 weeks, study length 75 weeks) was 26.4 mg/kg/day and the TD50 (rat, strain Fischer, males, in feed, site: urinary bladder, lesion: transitional-cell carcinoma, dosed 75 weeks, study length 75 weeks) was 78.2 mg/kg/day. The TD50 (rat, strain Sprague-Dawley, females, in feed, site: any site (literature study), lesion: malignant tumor, dosed 75 weeks, study length 75 weeks) was 25.7 mg/kg/day, the TD50 (rat, strain Sprague-Dawley, females, in feed, site: external auditory canal, lesion: squamous-cell carcinoma, dosed 75 weeks, study length 75 weeks) was 61.9 mg/kg/day and the TD50 (rat, strain Sprague-Dawley, females, in feed, site: mammary gland, lesion: adenocarcinoma, dosed 75 weeks, study length 75 weeks) was 61.9 mg/kg/day. The TD50 (rat, strain Sprague-Dawley, females, in feed, site: urinary bladder, lesion: several types, types named in the paper, dosed 75 weeks, study length 75 weeks) was 43.9 mg/kg/day, the TD50 (rat, strain Sprague-Dawley, females, in feed, site: urinary bladder, lesion: transitional-cell carcinoma, dosed 75 weeks, study length 75 weeks) was 205 mg/kg/day and the TD50 (rat, strain Sprague-Dawley, males, in feed, site: any site (literature study), lesion: malignant tumor, dosed 75 weeks, study length 75 weeks) was 78.2 mg/kg/day. The TD50 (rat, strain Sprague-Dawley, males, in feed, site: kidney, lesion: squamous-cell carcinoma, dosed 75 weeks, study length 75 weeks) was 164 mg/kg/day, the TD50 (rat, strain Sprague-Dawley, males, in feed, site: urinary bladder, lesion: transitional-cell papilloma, dosed 75 weeks, study length 75 weeks) was 164 mg/kg/day and the TD50 (rat, strain Wistar, females, in feed, site: any site (literature study), lesion: malignant tumor, dosed 75 weeks, study length 75 weeks) was 43.9 mg/kg/day. For the same molecule, the TD50 (rat, strain Wistar, females, in feed, site: liver, lesion: cystadenoma, dosed 75 weeks, study length 75 weeks) was 205 mg/kg/day, the TD50 (rat, strain Wistar, females, in feed, site: mammary gland, lesion: adenocarcinoma, dosed 75 weeks, study length 75 weeks) was 97.7 mg/kg/day and the TD50 (rat, strain Wistar, females, in feed, site: urinary bladder, lesion: several types, types named in the paper, dosed 75 weeks, study length 75 weeks) was 43.9 mg/kg/day. The TD50 (rat, strain Wistar, females, in feed, site: urinary bladder, lesion: transitional-cell carcinoma, dosed 75 weeks, study length 75 weeks) was 97.7 mg/kg/day, the TD50 (rat, strain Wistar, males, in feed, site: any site (literature study), lesion: benign tumor, dosed 84 weeks, study length 84 weeks) was 53.3 mg/kg/day and the TD50 (rat, strain Wistar, males, in feed, site: any site (literature study), lesion: malignant tumor, dosed 75 weeks, study length 75 weeks) was 26.4 mg/kg/day. The carcinogen call (rat, strain Wistar, males, in feed, site: any site (literature study), lesion: malignant tumor, dosed 84 weeks, study length 84 weeks) was “positive”, the TD50 (rat, strain Wistar, males, in feed, site: external auditory canal, lesion: squamous-cell carcinoma, dosed 75 weeks, study length 75 weeks) was 78.2 mg/kg/day and the TD50 (rat, strain Wistar, males, in feed, site: kidney, lesion: squamous-cell carcinoma, dosed 75 weeks, study length 75 weeks) was 164 mg/kg/day. For the same molecule, the TD50 (rat, strain Wistar, males, in feed, site: urinary bladder, lesion: several types, types named in the paper, dosed 75 weeks, study length 75 weeks) was 35.2 mg/kg/day, the carcinogen call (rat, strain Wistar, males, in feed, site: urinary bladder, lesion: several types, types named in the paper, dosed 84 weeks, study length 84 weeks) was “positive” and the TD50 (rat, strain Wistar, males, in feed, site: urinary bladder, lesion: transitional-cell carcinoma, dosed 75 weeks, study length 75 weeks) was 78.2 mg/kg/day.
